Laboratory results: publication PMC7176276, “Elucidating the possible mechanism of action of some pathogen box compounds against Leishmania donovani” (PLoS Neglected Tropical Diseases, 2020)

Columns and labels:
[1] = system: Leishmania donovani promastigotes; assay: In vitro antileishmanial activity assay, promastigotes (MTT); format: cell-based; conditions: for Therapeutic Index (TC50/IC50) promastigotes: TC50 RAW 264.7 / IC50 promastigotes
[2] = system: RAW 264.7 macrophage cell line; assay: Cytotoxicity test against RAW macrophage cell line using MTT assay; format: cell-based, murine; conditions: RAW 264.7, 48 hours
Description: A murine macrophage cell line (RAW 264.7) was cultured in DMEM medium supplemented with penicillin G sodium (100 μg/mL), streptomycin sulfate (100 μg/mL) and 10% FBS. Macrophages at a density of 1 x 10^6 cells/mL were incubated at different concentrations (ranging from 0.39–100 μg/mL) of the compounds for 48 hours in a CO2 incubator (5% CO2, 37° C). Macrophages without any treatment were taken as negative control and amphotericin B was used as positive control. At the termination of the assay, MTT was added and incubated for an additional 3 hours. Acidified isopropanol was added to the set-up to solubilize the formazan crystals formed by the viable cells. The intensity of formazan formation was read on an Elisa plate reader (Varioskan Lux Elisa microplate reader, Thermo Fischer Scientific, USA) at 570 nm. The 50% cytotoxic concentrations (CC50) of the compounds were determined by analysis of dose-response curves. Selectivity index or therapeutic index was calculated as a ratio of CC50 RAW 264.7/IC50 L. donovani promastigotes or amastigotes.

[3] = system: Leishmania donovani promastigotes; assay: Growth kinetics assay against promastigotes; format: cell-based; conditions: for incubation time after which decline in the parasite population was observed: promastigotes, 1μg/mL
Description: Promastigotes of L. donovani (2 x 10^4 cells) were incubated at 25° C in the presence of the test compounds (at 1μg/mL for each compound) in M199 containing 10% FBS (complete medium). Promastigotes treated with amphotericin B (0–50 μg/ml) served as positive control while untreated promastigotes in the medium alone served as negative control. Aliquots from treated and control parasites were diluted in 0.02 M PBS (pH 7.2) and the viable cells counted daily for 5 days using a Neubauer haemocytometer and a phase-contrast microscope under a 40x objective.

[4] = system: Leishmania donovani amastigotes; assay: In vitro antileishmanial activity assay, macrophage-amastigotes model (MTT); format: cell-based; conditions: TC50 RAW 264.7 / IC50 amastigotes
Description: Leishmania donovani (MHOM/SD/62/1S strain) was a kind gift from Dr. Yamthe Lauve (Bei Resources NIAID, NIH). The promastigotes were cultured in M199 medium supplemented with 10% heat-inactivated fetal bovine serum (FBS), penicillin G sodium (100 μg/mL) and streptomycin sulfate (100 μg/mL) at 25° C and subcultured every 72 hours in the same medium at a mean density of 1 x 10^5 cells/mL [9]. The murine macrophage cell line RAW 264.7 (RIKEN BioResource Centre Cell Bank, Japan) were kindly provided by Professor Regina Appiah-Opong of the Clinical Pathology Department, Noguchi Memorial Institute for Medical Research, Ghana. RAW 264.7 were grown at 37° C in DMEM medium (pH 7.4) supplemented with 10% heat-inactivated FBS for 48–72 hours in 5% CO2 and subcultured in fresh DMEM medium at a mean density of 1 x 10^5 cells/mL.
Amphotericin B was used as a reference antileishmanial drug (positive control). RAW 264.7 macrophage cells were infected with promastigotes at a density of 1:10 ratio for 12 hours, after which the non-phagocytosed promastigotes were discarded (by aspirating them alongside the media) and the amastigote cells within the macrophages were treated with the compounds (in fresh complete media) to test their growth inhibitory activity using the method described previously. Parasite viability was assessed using the 3-(4,5-Dimethylthiazol-2-yl)-2,5-diphenyltetrazolium bromide (MTT) method in which the rate of formazan crystal formation was used as an index of cell viability as described by Mosmann. Fluorescence was measured with a Varioskan Lux Elisa microplate reader (Thermo Fischer Scientific, USA) at a wavelength of 570 nm. The fluorescence counts were plotted against the drug concentrations and the 50% inhibitory concentration (IC50) was determined by analysis of the dose-response curves using excel.

human red blood cells = assay: Haemolysis assay against the human red blood cells; format: cell-based; conditions: 2% haematocrit, 3 hours
Description: The haemolytic effect of the compounds were tested against the human red blood cells at a density of 2% haematocrit. The method described by Kazi et al was used with slight modification. In this study, human red blood cells were used, the respective test compounds were incubated for 3 hours and 1% triton X100 served as the positive control. At the end of the assay the supernatant was read on a microtiter plate reader (Varioskan Lux Elisa microplate reader, Thermo Fischer Scientific, USA) at 415 nm. The 50% haemolytic concentration (HC50) of the compounds were determined by analysis of dose-response curves.

[5] = system: Leishmania donovani promastigotes; assay: Growth reversibility assay (cytocidal/cytostatic) against promastigotes; format: cell-based; conditions: for cytocidal or cytostatic effect: growth reversibility profile after drug withdrawal; for growth reversal / reversibility of growth inhibition: promastigotes washed after 5 days of treatment; for growth reversal: regrown 4 days in fresh medium; for reversibility of growth inhibition: regrown 4 days
Description: However, to confirm the cytocidal or cytostatic effect of the test compounds, the treated and untreated parasites after 5 days of incubation were washed twice with fresh M199 and then resuspended in complete M199 media and allowed to grow further at 25° C; the viable promastigotes were enumerated microscopically after 4 days.

[6] = system: Leishmania donovani promastigotes; assay: Morphological and mitochondrion integrity analysis by fluorescence microscopy (DAPI, MitoTracker); format: cell-based; conditions: 1μg/mL; for parasite cells with degeneration/disintegration of DNA (nucleus, kinetoplast) and mitochondrion: 72 hours
Description: Leishmania donovani promastigotes (2 x 10^4 cells) were treated with the test compounds at 1μg/mL (point concentration). They were then incubated for 24 hours and 72 hours in order to study their morphological changes and to see the changes in their mitochondrial integrity using DAPI and MitoTracker red dye respectively. The assay was performed using the methods described by Amisigo et al with slight modifications. Here the Mitotracker red dye was added to the pelleted promastigote cells at a concentration of 100 nM, resuspended in 1 mL of FBS-free M199 media with 1% BSA (Bovine Serum Albumin) and incubated for 30 minutes.

[7] = system: Leishmania donovani promastigotes; assay: Cell cycle progression analysis by flow cytometry; format: cell-based; conditions: 2x IC50, 24 hours; for change in the number of cells at the G2/M phase: versus untreated
Description: Guava Cell Cycle Reagent (catalog No. 4500–0220) was used to stain the cells and the number of cells in G0/G1, S and G2/M phases were determined. Briefly, treated and untreated cells were pelleted and fixed in 70% ice-cold ethanol for an hour at -20°C, the suspended cells were then pelleted by centrifugation at 1500 rpm for 10 minutes. The supernatants were discarded, and the pelleted cells were washed twice with 1X PBS to ensure total removal of the ethanol. To a 200 μL of the cell pellets, a 200 μL of the Gauva Cell Cycle Reagent was added and incubated at room temperature (25°C) for 30 minutes in the dark. Cell distribution at the distinct cell cycle phases were measured using flow cytometer (BD LSR Fortessa X-20 analyzer BD Biosciences San Jose, CA 95131 USA). Data generated were analyzed using the FlowJo V10 software.

[8] = system: Leishmania donovani promastigotes; assay: Apoptotic and necrotic potentials, Annexin V-FITC/PI flow cytometry; format: cell-based; conditions: 2x IC50, 24 hours; far less than in the untreated cells
Description: Briefly, treated promastigote cells were washed twice with cold 1x PBS and then resuspended in 1x binding buffer at a cell density of 1 x 10^6 cells/mL. To a 100 μL of the suspended cells, 5 μL of Annexin V-FITC and 5 μL of Propidium Iodide (PI) were added. The mixture was gently vortexed and allowed to incubate for 15 minutes at room temperature (25°C) in the dark. To the set-up, 400 μL of 1x binding buffer was added and the assay was read by flow cytometry (BD LSR Fortessa X-20 analyzer BD Biosciences, San Jose, CA 95131 USA) and the results analyzed using FlowJo version 10 software.

[9] = system: Leishmania donovani promastigote; set-up: method as in PMID 25690568; conditions: earlier report ref 18; cited from earlier work
[10] = system: Leishmania donovani amastigote; set-up: method as in PMID 25690568; conditions: earlier report ref 18; cited from earlier work
L. major = system: L. major; set-up: method as in PMID 25690568; conditions: earlier report ref 18; cited from earlier work
L. infantum = system: L. infantum; set-up: method as in PMID 25690568; conditions: earlier report ref 18; cited from earlier work

| Structure (SMILES) | Therapeutic Index (TC50/IC50) promastigotes [1] | TC50(μM)±SD RAW [2] | Therapeutic Index (TC50/IC50) amastigotes [4] | HC50 (50% haemolytic concentration) (human red blood cells) | incubation time after which decline in the parasite population was observed [3] | cytocidal or cytostatic effect [5] | growth reversal [5] | parasite cells with degeneration/disintegration of DNA (nucleus, kinetoplast) and mitochondrion [6] | reversibility of growth inhibition [5] | cells at the S phase [7] | change in the number of cells at the G2/M phase [7] | apoptosis and necrosis of promastigotes [8] | parasite cells showing no obvious DNA and mitochondrion abnormality ([6]; 24 hours) | other results |
| --- | --- | --- | --- | --- | --- | --- | --- | --- | --- | --- | --- | --- | --- | --- |
| C[C@@H]1[C@H](O)[C@@H](C)/C=C/C=C/C=C/C=C/C=C/C=C/C=C/[C@H](O[C@@H]2O[C@H](C)[C@@H](O)[C@H](N)[C@@H]2O)C[C@@H]2O[C@](O)(C[C@@H](O)C[C@@H](O)[C@H](O)CC[C@@H](O)C[C@@H](O)CC(=O)O[C@H]1C)C[C@H](O)[C@H]2C(=O)O [Amphotericin B, amphotericin B, reference compound] | 3.0 | 15.75 ± 0.03 µM |  |  |  |  |  |  |  |  |  |  |  | IC50 ([1]; Leishmania donovani, 96 h, promastigotes, 4 days at 25° C, MTT, mean ±SD of three experiments): 5.3 ± 0.03 µM; effect on growth of promastigotes (growth kinetics) ([3]; viable cells counted daily for 5 days, compared with untreated control): no viable cells observed after 24 hours |
| CCc1nn(C)c(C(=O)NCc2ccc(Oc3ccc(C)cc3)cc2)c1Cl [MMV688934] | 416 |  | 453 | >100 µg/mL | 24 h | cytostatic | 32.3% | more than 90% |  |  |  |  |  | promastigotes showing enlargement of the nucleus and kinetoplast with the mitochondria losing its normal shape ([6]; 24 hours): 70% |
| CC(C)(C)C(O)C(Oc1ccc(-c2ccccc2)cc1)n1cncn1 (centres unmarked) [MMV688942] | 43 |  | 16 | >100 µg/mL | 48 h | cytocidal |  | 85% | not reversible | 28% | no significant change | slight apoptosis and necrosis |  | parasites showing loss of kinetoplast ([6]; 24 hours): about 30% |
| CNC(=O)C1Cc2ccccc2N1C(=O)Cc1ccc(F)cc1 (centres unmarked) [MMV188296] | 914 |  | 237 | >100 µg/mL | 48 h | cytostatic | 56.5% | more than 90% |  |  |  |  |  | parasite population with loss in mitochondrion integrity ([6]; 24 hours): 40% |
| CC(C)(C)OC(=O)N1CCN(c2[nH]nnc2-c2ccc(Oc3ccccc3)cc2)CC1 [MMV676057] | 432 |  | 16 | >100 µg/mL | 48 h | cytocidal |  | about 85% | not reversible | 23% | no significant change | slight apoptosis and necrosis | About 70% | cells at the G0-G1 phase ([7]; untreated 30%): 23%; IC50 [9]: 1.3 µM; IC50 [10]: > 10 µM; IC50 (L. major): 13 µM; IC50 (L. infantum): 10.2 µM |
| Cc1nn2c(=O)c3c([nH]c2c1-c1ccc(Cl)cc1)CCCC3 [MMV688776] | 19 | 50 ± 0.02 µM | 1 | >100 µg/mL | 24 h | cytostatic | 57.9% | About 70% |  |  |  |  | About 70% |  |
